This note sets out measurements from patent US20220378744A1, “COMPOUNDS FOR TREATING PROLIFERATOR-ACTIVATED RECEPTORS (PPAR) MEDIATED DISEASES OR CONDITIONS” (MEDIPURE PHARMACEUTICALS INC., priority 2021, published 2022).

The target in this experiment is T1, human PPARδ/β (NR1C2) (Homo sapiens, UniProt Q03181).
T1 sequence (Q03181 1-441): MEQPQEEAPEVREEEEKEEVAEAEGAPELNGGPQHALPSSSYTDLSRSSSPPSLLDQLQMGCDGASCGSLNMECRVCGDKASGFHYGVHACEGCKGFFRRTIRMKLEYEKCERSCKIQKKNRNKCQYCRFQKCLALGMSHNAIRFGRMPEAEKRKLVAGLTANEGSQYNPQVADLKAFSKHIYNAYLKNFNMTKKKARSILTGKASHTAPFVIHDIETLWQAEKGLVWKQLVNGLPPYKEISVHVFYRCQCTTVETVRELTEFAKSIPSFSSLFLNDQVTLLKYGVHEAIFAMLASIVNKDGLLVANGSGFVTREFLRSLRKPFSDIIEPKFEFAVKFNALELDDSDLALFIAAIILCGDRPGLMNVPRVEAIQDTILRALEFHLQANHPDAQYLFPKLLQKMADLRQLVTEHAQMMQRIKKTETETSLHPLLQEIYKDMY
In words: Cell-based human PPARδ/β transactivation (nuclear receptor reporter) assay. The note with it: at tested concentrations. On the procedure:
The assay was performed using cell-based human PPAR nuclear receptor reporter assay kits (NR1C1 for PPARα; NR1C2 for PPARδ/β, and NR1C3 for PPARγ, Indigo Biosciences) by following the manufacturer's instruction. In brief, PPAR reporter cells were added to CRM medium (Indigo Biosciences), seeded into wells of a 96-well culture plate and incubated for 5 hours in a cell culture incubator at 37° C. with 5% CO2. The medium was then removed, and the cells were treated with test compounds at different concentrations in CSM medium (Indigo Biosciences) for 24 h inside the incubator. […] DMSO (Sigma) at 0.1% (v/v) was used as negative baseline control (C). Each treatment was tested in duplicate wells. At the end point of the experiments, the treatment medium was discarded and Luciferase Detection Reagent (Indigo Biosciences) was added. Following a 10-minute rest period, the intensity of light emission (in units of “Relative Light Units; RLU”) from each assay well was quantified using a plate-reading luminometer (Synergy H1 plate reader, BioTek). In addition, live cell multiplex assay (Indigo Biosciences) was combined with the activation assays to detect potential cytotoxic effect, if any, of the test chemicals to normalize the signals as per manufacturer's instruction.

With `CCO[C@@H](Cc1ccc(OCCn2c(C)ccc2-c2ccc(SC)cc2)cc1)C(=O)O` [saroglitazar], the PPARδ/β transactivation activity result is recorded as “showed activities”.
